Assay results from publication PMC7922564, “Molecular Insights into an Antibiotic Enhancer Action of New Morpholine-Containing 5-Arylideneimidazolones in the Fight against MDR Bacteria” (International Journal of Molecular Sciences, 2021).
“And” between values parts separate entries of the source, which are not always exact repeats. Equal entries are not always repeated. Where two headings read alike, the source gives them in different places.

What was measured:
[1] = system: S. aureus ATCC 25923; assay: MIC determination (microdilution), S. aureus ATCC 25923; type: cell-based, Staphylococcus aureus; conditions: Staphylococcus aureus, ATCC25923, unstarred values of column MIC value/no precipitation; read-out: MIC value
Procedure: (§1) Determination of MIC values, i.e., intrinsic antibacterial activity, of products and antibiotics (oxacillin, ampicillin, vancomycin, ciprofloxacin, and erythromycin) in the presence and absence of compounds tested was conducted by the use of a standard 2-fold microdilution method in cation-adjusted Mueller Hinton broth following the Clinical and Laboratory Standards Institute (CLSI) guidelines. The MIC values were detected using an Infinite M200 pro Tecan microplate reader (Tecan® France, SA-Lyon, France). MIC determinations were conducted in 96-well microtiter plates and repeated 3–4 times.
(§2) Initially, MICs of a series of imidazolone derivatives were assessed against susceptible (reference) and MDR strains of staphylococci. Next, MIC values of the aforementioned antibiotics were determined in the absence and presence of imidazolone derivatives to assess the chemosensitizing effect of these compounds. […] 5-arylideneimidazolones and 5-arylidenethiazolones, which precipitated after addition to bacterial suspension in MH II medium, were tested at the highest concentrations at which precipitation was not observed. […] Antibacterial activity of compounds and antibiotics ampicillin, vancomycin, ciprofloxacin, and erythromycin was recorded as the lowest concentration of molecules able to inhibit bacterial growth after 18 h incubation at 37 °C. The incubation of bacterial strains exposed to oxacillin paired with compounds tested was conducted at 35 °C and extended to 24 h due to frequent occurrence of heterogeneity among MRSA strains. The results are presented as activity gain (A) parameter which was calculated as ratio of MIC of a certain antibiotic (MICAnt) to its MICAnt+Comp, observed in combination with a tested compound (7, 12–16, 19, or 20; Equation (1)). (1) A=(MICAnt/MICAnt+Comp)

[2] = system: MRSA 19449; assay: MIC determination (microdilution), MRSA 19449; type: cell-based, Staphylococcus aureus; conditions: Staphylococcus aureus, MRSA, no precipitation
Procedure: as §1, §2

[3] = system: K. aerogenes Ea-294, Ea-308 (devoid of AcrAB); assay: MIC of compounds, K. aerogenes Ea-294, Ea-308; type: cell-based; conditions: Klebsiella aerogenes, read-out: Minimal Inhibitory Concentration (MIC)
Text: (§3) A subset of compounds, namely 7, 12–16, 19, 20, was also examined for the potential to increase the effectiveness of the antibiotics chloramphenicol, erythromycin, doxycycline, and the fluoroquinolone antibiotic norfloxacin, which all are substrates for AcrAB-TolC in K. aerogenes. In addition to strain Ea-289, the adjuvant-like effect of the compounds was investigated in strain CM-64, which also overexpresses the AcrAB-TolC efflux pump, although it has no changes in porin content, and in the Ea-289 derivatives, i.e., Ea-294 and Ea-308, which are devoid of AcrAB (Table S17, Supplementary).
as §1
(§4) MIC values of 5-arylideneimidazolone derivatives were determined following CLSI recommendations as in the methods described for S. aureus (Section 3.3.1).

[4] = system: K. aerogenes Ea-289 (overexpression of AcrAB-TolC); assay: MIC of compounds, K. aerogenes Ea-289; type: cell-based; conditions: Klebsiella aerogenes
Procedure: At first, MIC values of compounds were determined (Table S15, Supplementary). Next, their abilities to reduce MICs of the AcrAB-TolC substrates doxycycline (a tetracycline-class antibiotic) and erythromycin were studied (Table S16, Supplementary). […]
as §1, §4

[5] = system: K. aerogenes CM-64 (overexpression of AcrAB-TolC); assay: MIC of compounds, K. aerogenes CM-64; type: cell-based; conditions: Klebsiella aerogenes, read-out: Minimal Inhibitory Concentration (MIC)
Text: as §3, §1, §4

[6] = system: K. aerogenes Ea-294, Ea-308; assay: MIC reduction assay (antibiotic adjuvant), K. aerogenes Ea-294, Ea-308; type: cell-based, Klebsiella aerogenes; conditions: doxycycline, chloramphenicol, norfloxacin, erythromycin;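 also: compound at no more than one quarter of its own MIC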
Text: as §3, §2, §4

[7] = system: K. aerogenes Ea-289; assay: MIC reduction assay (antibiotic adjuvant), K. aerogenes Ea-289; type: cell-based, Klebsiella aerogenes;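 also: compound at no more than one quarter of its own MIC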
Procedure: At first, MIC values of compounds were determined (Table S15, Supplementary). Next, their abilities to reduce MICs of the AcrAB-TolC substrates doxycycline (a tetracycline-class antibiotic) and erythromycin were studied (Table S16, Supplementary).
as §3, §2, §4

[8] = system: K. aerogenes CM-64; assay: MIC reduction assay (antibiotic adjuvant), K. aerogenes CM-64; type: cell-based, Klebsiella aerogenes; conditions: doxycycline, chloramphenicol, norfloxacin, erythromycin;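 also: compound at no more than one quarter of its own MIC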
Text: as §3, §2, §4

[9] = system: AcrAB-TolC efflux pump in K. aerogenes strain Ea-289; assay: Real-time efflux (RTE) assay, 1,2'-dNA extrusion; type: cell-based, Klebsiella aerogenes; conditions: compound 100 µM; IE=100% total inhibition of efflux
Procedure: Compounds 7, 12–16, 19, and 20 were also assessed for their EPI property in K. aerogenes strain Ea-289 with the use of a real-time efflux (RTE) assay. Results for compounds 16 and 20 were previously described. The experiment is based on the measurement of the extrusion of a fluorescent dye from bacterial cells overproducing efflux pump transporters in the presence and absence of compounds tested. The dye used in this assay, 1,2’ –dinaphthylamine (1,2’-dNA), is a substrate for the AcrAB-TolC efflux pump, and is strongly fluorescent upon incorporation into a phospholipid bilayer, although it is almost non-fluorescent in an aqueous solution [37, 38].
A likewise strong blocking efficacy (IE = 83 %) was also noticed for compound 12, while the lowest inhibitory effect was found for compound 13 (IE = 23 %).
The inhibitory activity of 5-arylideneimidazolone derivatives towards AcrAB-TolC mediated efflux of 1,2’-dNA was detected in K. aerogenes strain Ea-289 by using a real-time fluorometric method. In a first step, bacterial cells were loaded with the environment-sensitive fluorescent membrane probe, 1,2’-dNA, in the presence of the EPI carbonyl cyanide m-chlorophenylhydrazone (CCCP) which inactivated the pump by dissipating membrane potential. Next, compounds tested were added at the concentration of 100 µM and the efflux was energizing by automated injection of glucose at a dose of 50 µM. The fluorescence intensity was measured in a microplate reader (Tecan) with an excitation wavelength of λex = 370 nm and an emission wavelength of λem = 420 nm.

[10] = Water solubility (UV spectroscopy); type: physicochemical
Text: Six representatives of 5-arylideneimidazolones (9–12, 15, 19) were chosen for the determination of water solubility. UV spectroscopy was used for the estimation of concentrations of compounds according to the method described earlier. Acquired UV absorbance, calculated means, and standard deviations for tested compounds are presented in Supplementary Table S18. Solubility results, presented in Table 6, point out that compounds from the same group (A or B, Table 1 and Table 2) with the two-ring aromatic moiety are more soluble than compounds with the fluorene motive (Group A: 9, 10, 11 vs. 12; Group B: 15 vs. 19). […] The most soluble of tested compounds was compound 15, which could be dissolved in water at a concentration of up to 205.502 mM/L.
Water solubility was obtained using UV spectroscopy method. Absorbance of tested solutions of compounds 9-12, 15, and 19, respectively in suitable dilution, in three repetitions as well as calculated arithmetic means, solubility and standard deviations are presented in Table S18. the solubility results […]
Table S18. Results of absorbance used for estimation of water solubility of tested compounds (9-12, 15, 19).
Abbreviations: A1, A2,and A3, UV absorbance in first, second, and third repetition; Amean, arithmetic mean of absorbance from three repetitions; s, standard deviation for absorbance; S, water solubility; SD – standard deviation for solubility. […]

[11] = Stability in acidic and basic conditions (TLC); type: physicochemical; conditions: for Number of TLC spots: 1 = stable
Procedure: Compounds 9–12, 15, and 19 were also tested for their stability in acidic and basic conditions. This assay was carried out for 48 h and samples were taken at six-time intervals (10 min, 1 h, 2 h, 3 h, 24 h, 48 h). Stability of the compounds was determined using the TLC method. […] In basic conditions, only compounds 10 and 15 were stable for 24 h. […] Results with details, including time of degradation of products obtained, are presented in the Supplementary (Tables S19 and S20). […]
VI. Stability in different pH conditions
Stability of chosen compounds (9-12, 15, and 19) were determined using the TLC method. Assays were performed in acidic and basic conditions and were carried out for 48 h. Samples were taken at six-time intervals (10 min., 1 h, 2 h, 3 h, 24 h, 48 h). […]
of spots observed on TLC, where 1 indicate that compound is stable (only TLC spot for proper compound was observed). Higher values point out how many products of degradation was observed, which can be calculating by subtracting one from number of spots.
Table S19. Results of chosen compounds (9-12, 15, 19) stability in acidic conditions.
Compound Number of TLC spots in defined time
Table S20. Results of chosen compounds (9-12, 15, 19) stability in basic conditions.

[12] = read-out: MIC value/no precipitation

| SMILES | MIC [1] [µM] | MIC [2] [µM] | MIC [4, 12] [µM] | A (activity gain) ([7]; doxycycline) | A (activity gain) ([7]; erythromycin) | solubility [10] | Number of TLC spots ([11]; acidic conditions, 10 min) | Number of TLC spots ([11]; acidic conditions, 1 h) | Number of TLC spots ([11]; acidic conditions, 2 h) | Number of TLC spots ([11]; acidic conditions, 3 h) | Number of TLC spots ([11]; acidic conditions, 24 h) | Number of TLC spots ([11]; acidic conditions, 48 h) | Number of TLC spots ([11]; basic conditions, 10 min) | Number of TLC spots ([11]; basic conditions, 1 h) | Number of TLC spots ([11]; basic conditions, 2 h) | Number of TLC spots ([11]; basic conditions, 3 h) | Number of TLC spots ([11]; basic conditions, 24 h) | Number of TLC spots ([11]; basic conditions, 48 h) | further results |
| --- | --- | --- | --- | --- | --- | --- | --- | --- | --- | --- | --- | --- | --- | --- | --- | --- | --- | --- | --- |
| Cl.O=C1N=C(N2CCC(N3CCOCC3)CC2)N/C1=C\c1cccc2ccccc12 (hydrate or solvate) [Compound 11, (Z)-5-(Naphthalen-1-ylmethylene)-2-(4-Morpholinopiperidin-1-yl)-Imidazol-4(5H)-one Hydrochloride] |  |  |  |  |  |  |  |  |  |  |  |  |  |  |  |  |  |  | melting point: 244 to 249 °C |
| O=C1NC(N2CCOCC2)=N/C1=C\c1ccc(-c2ccccc2)cc1 [Compound 7] | 31.2 to 250 | 31.2 to 250 | > 250 | 1 | 1 |  |  |  |  |  |  |  |  |  |  |  |  |  | MIC [3]: 2000 µM; MIC ([4]; read-out: Minimal Inhibitory Concentration (MIC)): > 2000 µM; MIC [5]: > 2000 µM; A (activity gain) [6]: 1; A (activity gain) ([7]; doxycycline, chloramphenicol, norfloxacin, erythromycin): 1; A (activity gain) [8]: 1; Inhibition efficiency (IE) towards extrusion of 1,2'-dNA [9]: 59% |
| O=C1NC(N2CCC(N3CCOCC3)CC2)=N/C1=C\c1ccc(-c2ccccc2)cc1 [Compound 8] |  | 31.2 to 250 | > 250 | 1 | 1 |  |  |  |  |  |  |  |  |  |  |  |  |  |  |
| O=C1NC(N2CCC(N3CCOCC3)CC2)=N/C1=C\c1cccc(Oc2ccccc2)c1 [Compound 9] | 31.2 to 250 | 31.2 to 250 | > 250 | 1 | 1 | 1480 µg/mL and 3170 µM | 2 | 2 | 2 | 2 | 2 | 2 | 2 | 2 | 2 | 2 | 2 | 2 |  |
| O=C1NC(N2CCC(N3CCOCC3)CC2)=N/C1=C\c1ccc(Oc2ccccc2)cc1 [Compound 10] |  | 31.2 to 250 | > 250 | 1 | 1 | 2680 µg/mL and 5740 µM | 1 | 1 | 1 | 1 | 1 | 2 | 1 | 1 | 1 | 1 | 1 | 2 | time stable ([11]; basic conditions): 24 h |
